Experimental data as given in article PMC7856035 (Neuropharmacology, 2020).

Experiments:
5-HT4 receptor [1] = biological target: T1, 5-HT4 receptor (Rattus norvegicus, UniProt Q62758); experiment: block of […] 5-HT-induced PKA-RII phosphorylation in rat DRG neurons; type: cell-based
5-HT4 receptor [2] = biological target: T1, 5-HT4 receptor; experiment: agonist-induced PKA-RII phosphorylation in rat DRG neurons, reduced by GR113808; type: cell-based

T1 sequence (Q62758 whole entry): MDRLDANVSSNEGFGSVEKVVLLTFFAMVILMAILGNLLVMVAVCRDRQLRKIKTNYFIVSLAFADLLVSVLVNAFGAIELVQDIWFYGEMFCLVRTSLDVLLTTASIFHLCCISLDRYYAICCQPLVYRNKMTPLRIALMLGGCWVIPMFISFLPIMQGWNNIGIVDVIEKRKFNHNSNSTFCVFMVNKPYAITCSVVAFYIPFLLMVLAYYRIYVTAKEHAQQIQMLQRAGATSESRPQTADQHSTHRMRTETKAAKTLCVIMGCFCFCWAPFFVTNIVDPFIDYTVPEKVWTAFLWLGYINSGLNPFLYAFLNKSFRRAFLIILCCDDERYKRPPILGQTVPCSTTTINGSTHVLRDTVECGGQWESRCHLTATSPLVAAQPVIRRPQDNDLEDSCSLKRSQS

SMILES | IC50 (5-HT4 receptor [1]) [nM] | EC50 (5-HT4 receptor [2]) [nM]
Cn1cc(C(=O)OCC2CCN(CCNS(C)(=O)=O)CC2)c2ccccc21 [GR, GR113808] | 5.55 | –
COCCCN1CCC(NC(=O)c2cc(Cl)c(N)c3c2OCC3)CC1 [Ppr, prucalopride] | – | 10.2
